Where “and” joins values, the source holds several entries; their conditions need not be identical. Equal entries are not always repeated.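 Values below derive from 48-hour exposures of cells grown in 96-well plates, with endpoints linearly interpolated between the two concentrations bracketing the appropriate inhibition level. At the GI50, growth is halved. At the TGI there is no net growth.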
Columns and labels:
Assay in all cases: NCI anticancer screen, dose series, 48 h
786-0 renal = system: 786-0 renal
A498 renal = system: A498 renal
CAKI-1 renal = system: CAKI-1 renal
CCRF-CEM leukemia = system: CCRF-CEM leukemia
DU-145 prostate = system: DU-145 prostate
KM12 colon = system: KM12 colon
LOX IMVI melanoma = system: LOX IMVI melanoma
M14 melanoma = system: M14 melanoma
MCF7 breast = system: MCF7 breast
NCI-H460 lung = system: NCI-H460 lung
SF-295 CNS = system: SF-295 CNS
SK-MEL-2 melanoma = system: SK-MEL-2 melanoma
SK-MEL-28 melanoma = system: SK-MEL-28 melanoma
SK-MEL-5 melanoma = system: SK-MEL-5 melanoma
UACC-257 melanoma = system: UACC-257 melanoma
SK-OV-3 ovarian = system: SK-OV-3 ovarian
TK-10 renal = system: TK-10 renal

Row | Structure (SMILES) | TGI (786-0 renal) [µM] | TGI (A498 renal) [µM] | TGI (CAKI-1 renal) [µM] | TGI (CCRF-CEM leukemia) [µM] | TGI (DU-145 prostate) [µM] | TGI (KM12 colon) [µM] | TGI (LOX IMVI melanoma) | TGI (M14 melanoma) [µM] | TGI (MCF7 breast) [µM] | TGI (NCI-H460 lung) [µM] | TGI (SF-295 CNS) [µM] | TGI (SK-MEL-2 melanoma) [µM] | TGI (SK-MEL-28 melanoma) | TGI (SK-MEL-5 melanoma) [µM] | TGI (UACC-257 melanoma) [µM] | GI50 (DU-145 prostate) [µM] | TGI (SK-OV-3 ovarian) [µM] | TGI (TK-10 renal) [µM] | GI50 (CAKI-1 renal) | GI50 (KM12 colon)
1 | COP1(=O)NCc2ncccc2O1 (centres undefined) | > 100 | > 100 | > 100 | > 100 | > 100 | > 100 | > 100 µM | > 100 | > 100 | > 100 | > 100 | > 100 | > 100 µM | > 100 | > 100 |  |  |  |  | 
2 | CC(=O)Nc1cc2c(cc1O)CC[C@@H]1[C@@H]2CC[C@]2(C)[C@@H](O)CC[C@@H]12 | > 100 | 70.7 | > 100 | > 100 | > 100 | 31.4 | > 100 µM | > 100 | > 100 | > 100 | > 100 |  | > 100 µM | 59.8 | > 100 | > 100 | > 100 | > 100 |  | 
3 | CC(=O)OCC12C(OC(C)=O)C[C@@H](C)C3(CC(c4ccoc4)OC3=O)C1CCC(O)C21CO1 (some centres undefined) | > 100 | > 100 | > 100 |  | > 100 | > 100 | > 100 µM | > 100 | > 100 |  | > 100 | > 100 | > 100 µM | > 100 | > 100 |  |  | > 100 |  | 
4 | O=C1NC(=O)C(C(c2ccc(Cl)cc2)C2C(=O)NC(=O)NC2=O)C(=O)N1 | > 100 | > 100 | > 100 | > 100 | > 100 | > 100 | > 100 µM | > 100 | > 100 | > 100 | > 100 | > 100 | > 100 µM | > 100 | > 100 |  |  | > 100 |  | 
5 | COc1ccc(-n2c(C)nc3ccc(NC4OCC(O)C(O)C4O)cc3c2=O)cc1 (centres undefined) | > 100 | > 100 | > 100 |  | > 100 | > 100 | 42.6 µM and 50.8 µM |  | > 100 | > 100 | > 100 | > 100 | > 100 µM and 57 µM | > 100 | > 100 |  |  | > 100 | > 100 µM and 39.5 µM | 36.5 µM and > 100 µM
6 | O=c1cc(CC(O)(C(F)(F)Cl)C(F)(F)Cl)[nH]n1-c1ccccc1 | > 100 | > 100 |  | > 100 | > 100 | > 100 | > 100 µM | > 100 | > 100 | > 100 | > 100 |  | > 100 µM | > 100 | > 100 |  | > 100 | > 100 |  | 
7 | Cc1ccc(-n2c(Cn3nnc(-c4cccnc4)n3)nn(C3OC(COC(=O)c4ccccc4)C(OC(=O)c4ccccc4)C3OC(=O)c3ccccc3)c2=S)cc1 (centres undefined) | > 100 |  | > 100 | > 100 | > 100 | > 100 | > 100 µM | > 100 | > 100 | > 100 | > 100 | > 100 | > 100 µM | > 100 | > 100 |  | > 100 | > 100 |  | 
8 | COc1ccc(N2C(=O)/C(=C\c3cccc(Oc4ccccc4)c3)S(=O)(=O)C2c2ccccc2)cc1 (centres undefined) | 42.5 | > 100 | > 100 | > 100 | > 100 | > 100 | > 100 µM | > 100 | > 100 | > 100 |  | > 100 | > 100 µM | 98.7 | > 100 |  |  | > 100 |  | 
9 | C#CCOC(=O)C(N)CSSCC(N)C(=O)O (centres undefined) | > 100 | > 100 | > 100 | > 100 | > 100 | > 100 | > 100 µM | > 100 | > 100 | > 100 |  | > 100 | > 100 µM | > 100 | > 100 |  |  | > 100 |  | 
10 | C=C1CC(Cn2cc(C)c(=O)[nH]c2=O)(c2ccc(-c3ccccc3)cc2)OC1=O (centres undefined) | 2.22 | 16.9 | 4.94 |  | 6.42 | 7.36 | 3.49 µM |  | 5.87 | 20.8 | 14.2 | 4.19 | 3.75 µM | 2.56 | 5.75 |  | 17.7 | 2.76 |  | 
11 | Nc1nc(NNc2ccc(Cl)c(Cl)c2)cc(=O)[nH]1 | 67.5 | > 100 |  | > 100 | > 100 | > 100 | 33.1 µM | > 100 | 72.5 | > 100 | > 100 |  | > 100 µM | > 100 | > 100 |  |  | > 100 |  | 
12 | COc1ccc(N[C@H](CS(=O)c2ccc(C)cc2)C(F)(F)C(F)(F)F)cc1 (some centres undefined) | > 100 | > 100 | > 100 | > 100 | > 100 | > 100 | > 100 µM | > 100 | > 100 | > 100 | > 100 |  | > 100 µM | > 100 | > 100 |  | > 100 | > 100 |  | 
